From patent US8163935B2, “Fused heterocyclic compounds” (Takeda Pharmaceutical Company Limited, priority 2005, dated 2012) come the findings set out here.

Structures can show the parent of a compound that is named as a salt.

In general, melting point refers to the temperature, or range, at which the solid turns liquid.

`COc1cc(Cl)cc(C)c1Nc1nc2cccc(-c3c(OC)cccc3OC)c2n1C` (as salt: trifluoroacetic acid salt) [Example 71, N-(4-chloro-2-methoxy-6-methylphenyl)-7-(2,6-dimethoxyphenyl)-1-methyl-1H-benzimidazol-2-amine Trifluoroacetic acid salt] registered a melting point of 288 to 289 °C. Molecule `CCCC(O)(CCC)c1cccc2nc(Nc3c(C)cc(C)cc3C)n(CCO)c12` [Example 73, 4-[1-(2-Hydroxyethyl)-2-(mesitylamino)-1H-benzimidazol-7-yl]heptan-4-ol] showed a melting point of 267 to 270 °C. The same measure for `CCC(CC)c1ccc(Cl)c2nc(Nc3c(Cl)cc(OC(F)(F)F)cc3Cl)n(C)c12` [Example 79, 4-Chloro-N-[2,6-dichloro-4-(trifluoromethoxy)phenyl]-7-(1-ethylpropyl)-1-methyl-1H-benzimidazol-2-amine]: 147 to 149 °C; for `CCC(CC)c1ccc(Cl)c2nc(Nc3ccc(Cl)cc3Cl)n(C)c12` [Example 80, 4-Chloro-N-(2,4-dichlorophenyl)-7-(1-ethylpropyl)-1-methyl-1H-benzimidazol-2-amine]: 130 to 132 °C. `CCC(CC)c1ccc(Cl)c2nc(Nc3ccc(Cl)cc3OC(F)(F)F)n(C)c12` [Example 81, 4-Chloro-N-[4-chloro-2-(trifluoromethoxy)phenyl]-7-(1-ethylpropyl)-1-methyl-1H-benzimidazol-2-amine] returned a melting point of 126 to 128 °C. `CCC(CC)c1ccc(Cl)c2nc(Nc3c(C)cc(Br)cc3C)n(C)c12` [Example 82, N-(4-Bromo-2,6-dimethylphenyl)-4-chloro-7-(1-ethylpropyl)-1-methyl-1H-benzimidazol-2-amine] returned a melting point of 247 to 249 °C. The molecule `CCC(CC)c1ccc(Cl)c2nc(Nc3c(C)cc(Cl)cc3C)n(C)c12` [Example 83, 4-Chloro-N-(4-chloro-2,6-dimethylphenyl)-7-(1-ethylpropyl)-1-methyl-1H-benzimidazol-2-amine] came in with a melting point of 247 to 249 °C.

As for `CCC(CC)c1ccc(Cl)c2nc(Nc3ccc(Br)cc3Cl)n(C)c12` [Example 85, N-(4-Bromo-2-chlorophenyl)-4-chloro-7-(1-ethylpropyl)-1-methyl-1H-benzimidazol-2-amine], the melting point was 127 to 129 °C. `CCC(CC)c1ccc(Cl)c2nc(Nc3ccc(C)cc3Br)n(C)c12` [Example 86, N-(2-Bromo-4-methylphenyl)-4-chloro-7-(1-ethylpropyl)-1-methyl-1H-benzimidazol-2-amine] registered a melting point of 174 to 176 °C. With `CCC(CC)c1ccc(Cl)c2nc(Nc3ccc(OC(F)(F)F)cc3Cl)n(C)c12` [Example 87, 4-Chloro-N-[2-chloro-4-(trifluoromethoxy)phenyl]-7-(1-ethylpropyl)-1-methyl-1H-benzimidazol-2-amine] the figure was 122 to 123 °C. The same measure for `CCC(CC)c1ccc(Cl)c2nc(Nc3cnc(N(C)C)cc3C)n(C)c12` [Example 88, N^5-[4-Chloro-7-(1-ethylpropyl)-1-methyl-1H-benzimidazol-2-yl]-N^2,N^2,4-trimethylpyridine-2,5-diamine]: 224 to 226 °C; for `CCCC(CCC)c1ccc(Cl)c2nc(Nc3c(C)cc(Br)cc3OC)n(C)c12` [Example 89, N-(4-Bromo-2-methoxy-6-methylphenyl)-4-chloro-1-methyl-7-(1-propylbutyl)-1H-benzimidazol-2-amine]: 210 to 211 °C. The same measure for `CCCC(CCC)c1ccc(Cl)c2nc(Nc3ccc(Cl)cc3Cl)n(C)c12` [Example 91, 4-Chloro-N-(2,4-dichlorophenyl)-1-methyl-7-(1-propylbutyl)-1H-benzimidazol-2-amine]: 146 to 148 °C. Molecule `CCCC(CCC)c1ccc(Cl)c2nc(Nc3ccc(Cl)cc3Br)n(C)c12` [Example 92, N-(2-Bromo-4-chlorophenyl)-4-chloro-1-methyl-7-(1-propylbutyl)-1H-benzimidazol-2-amine] had a melting point of 145 to 147 °C. Take `CCCC(CCC)c1ccc(Cl)c2nc(Nc3ccc(Br)cc3Cl)n(C)c12` [Example 93, N-(4-Bromo-2-chlorophenyl)-4-chloro-1-methyl-7-(1-propylbutyl)-1H-benzimidazol-2-amine]: the melting point lay within 145 to 147 °C. In turn, `CCCC(CCC)c1ccc(Cl)c2nc(Nc3ccc(Cl)cc3OC(F)(F)F)n(C)c12` [Example 94, 4-Chloro-N-[4-chloro-2-(trifluoromethoxy)phenyl]-1-methyl-7-(1-propylbutyl)-1H-benzimidazol-2-amine] gave a melting point of 130 to 132 °C.

In the case of `CCC(CC)c1ccc(Cl)c2nc(Nc3ccc(C(F)(F)F)cc3Cl)n(C)c12` [Example 95, 4-Chloro-N-[2-chloro-4-(trifluoromethyl)phenyl]-7-(1-ethylpropyl)-1-methyl-1H-benzimidazol-2-amine], the melting point lay within 128 to 129 °C. Regarding `CCC(CC)c1ccc(Br)c2nc(Nc3c(C)cc(Cl)cc3OC)n(C)c12` [Example 96, 4-Bromo-N-(4-chloro-2-methoxy-6-methylphenyl)-7-(1-ethylpropyl)-1-methyl-1H-benzimidazol-2-amine], the melting point lay in the range of 198 to 199 °C.

`CCC(CC)c1ccc(Cl)c2nc(Oc3ccc(Cl)cc3Cl)n(C)c12` [Example 98, 4-Chloro-2-(2,4-dichlorophenoxy)-7-(1-ethylpropyl)-1-methyl-1H-benzimidazole] returned a melting point of 87 to 89 °C. With `CCC(CC)c1ccc(Cl)c2nc(Oc3c(C)cc(C)cc3C)n(C)c12` [Example 99, 4-Chloro-7-(1-ethylpropyl)-2-(mesityloxy)-1-methyl-1H-benzimidazole] the figure was 137 to 139 °C.

For `CCC(CC)c1ccc(Cl)c2nc(Nc3c(C)cc(Cl)cc3OC)n(CC(=O)OC(C)C)c12` [Example 102, Isopropyl[4-chloro-2-[(4-chloro-2-methoxy-6-methylphenyl)amino]-7-(1-ethylpropyl)-1H-benzimidazol-1-yl]acetate], the melting point lay within 205 to 207 °C. With `COc1cc(Cl)cc(C)c1Nc1nc2c(Cl)ccc(C(=O)C(C)(C)C)c2n1C` [Example 105, 1-{4-Chloro-2-[(4-chloro-2-methoxy-6-methylphenyl)amino]-1-methyl-1H-benzimidazol-7-yl}-2,2-dimethylpropan-1-one] the figure was 249 to 250 °C; with `COc1cc(Cl)cc(C)c1Nc1nc2c(Cl)ccc(C(O)(C(C)(C)C)C(C)(C)C)c2n1C` [Example 106, 3-{4-Chloro-2-[(4-chloro-2-methoxy-6-methylphenyl)amino]-1-methyl-1H-benzimidazol-7-yl}-2,2,4,4-tetramethylpentan-3-ol], 246 to 248 °C. In turn, `COc1cc(Cl)cc(C)c1Nc1nc2c(Cl)ccc(C(O)(C(C)C)C(C)C)c2n1C` [Example 107, 3-{4-Chloro-2-[(4-chloro-2-methoxy-6-methylphenyl)amino]-1-methyl-1H-benzimidazol-7-yl}-2,4-dimethylpentan-3-ol] displayed a melting point of 218 to 219 °C.

The molecule `COc1cc(Cl)cc(C)c1Nc1nc2c(Cl)ccc(C(=C(C)C)C(C)C)c2n1C` [Example 108, 4-Chloro-N-(4-chloro-2-methoxy-6-methylphenyl)-7-(1-isopropyl-2-methylprop-1-en-1-yl)-1-methyl-1H-benzimidazol-2-amine] gave a melting point of 166 to 168 °C. As for `C/C=C(/CC)c1ccc(Cl)c2nc(Nc3c(C)cc(Cl)cc3OC)n(C)c12` [Example 109, 4-Chloro-N-(4-chloro-2-methoxy-6-methylphenyl)-7-[(1Z)-1-ethylprop-1-en-1-yl]-1-methyl-1H-benzimidazol-2-amine], the melting point lay in the range of 166 to 168 °C. Molecule `CCCC(CCC)c1ccc(Cl)c2nc(Nc3cc(C(F)(F)F)ccc3OC)n(C)c12` [Example 112, 4-Chloro-N-[2-methoxy-5-(trifluoromethyl)phenyl]-1-methyl-7-(1-propylbutyl)-1H-benzimidazol-2-amine] registered a melting point of 178 to 180 °C. The same measure for `CCCC(CCC)c1ccc(Cl)c2nc(Nc3cc(C(F)(F)F)c(Cl)cc3Cl)n(C)c12` [Example 113, 4-Chloro-N-[2,4-dichloro-5-(trifluoromethyl)phenyl]-1-methyl-7-(1-propylbutyl)-1H-benzimidazol-2-amine]: 206 to 208 °C; for `CCCC(CCC)c1ccc(Cl)c2nc(Nc3c(C)cc(Cl)cc3C)n(C)c12` [Example 114, 4-Chloro-N-(4-chloro-2,6-dimethylphenyl)-1-methyl-7-(1-propylbutyl)-1H-benzimidazol-2-amine]: 230 to 232 °C. `CCCC(CCC)c1ccc(Cl)c2nc(Nc3c(C)cc(Br)cc3C)n(C)c12` [Example 115, N-(4-Bromo-2,6-dimethylphenyl)-4-chloro-1-methyl-7-(1-propylbutyl)-1H-benzimidazol-2-amine] had a melting point of 234 to 236 °C. The molecule `CCCC(CCC)c1ccc(Cl)c2nc(Nc3c[nH]c(=O)cc3C)n(C)c12` [Example 116, 5-{[4-Chloro-1-methyl-7-(1-propylbutyl)-1H-benzimidazol-2-yl]amino}-4-methylpyridin-2(1H)-one] registered a melting point of 237 to 239 °C. The same measure for `CCCC(CCC)c1ccc(Cl)c2nc(Nc3cccc4c3CCCC4)n(C)c12` [Example 117, 4-Chloro-1-methyl-7-(1-propylbutyl)-N-(5,6,7,8-tetrahydronaphthalen-1-yl)-1H-benzimidazol-2-amine]: 236 to 238 °C; for `CCC(CC)c1cc(Br)cc2nc(Nc3c(C)cc(Cl)cc3OC)n(C)c12` [Example 121, 5-Bromo-N-(4-chloro-2-methoxy-6-methylphenyl)-7-(1-ethylpropyl)-1-methyl-1H-benzimidazol-2-amine]: 276 to 278 °C. The same measure for `CCCC(CCC)c1ccc(Cl)c2nc(Nc3cc(C(F)(F)F)c(O)cc3Cl)n(C)c12` [Example 122, 5-Chloro-4-{[4-chloro-1-methyl-7-(1-propylbutyl)-1H-benzimidazol-2-yl]amino}-2-(trifluoromethyl)phenol]: 197 to 199 °C. For the molecule `CCCC(CCC)c1ccc(Cl)c2nc(Nc3cc(C(F)(F)F)c(OC)cc3OC)n(C)c12` [Example 123, 4-Chloro-N-[2,4-dimethoxy-5-(trifluoromethyl)phenyl]-1-methyl-7-(1-propylbutyl)-1H-benzimidazol-2-amine], the melting point was 196 to 198 °C.
